Test results as given in patent US7869664B2, “Systems and methods for alignment of objects in images” (priority 2007, dated 2011).
Read-outs that look alike come from different tables or passages of the source.

Legend:
[1] = test system: hepatic acetaminophen-protein adducts; conditions: resistant SJL strain compared with sensitive C57B6 strain; previously shown; cited from earlier work
[2] = test system: inbred mouse strains
Description: For the genetic analysis, the susceptibility of a panel of 16 inbred mouse strains to developing liver toxicity after a single 300 mg/kg intraperitoneal dose of acetaminophen was assessed. This dose is known to cause liver toxicity in mice. During the 24 hour period after dosing, serum alanine aminotransferase (ALT), morbidity and liver histochemistry were assessed as indices of liver toxicity.
Animal husbandry and drug treatment. Seven to eight week old male mice were obtained from Jackson Laboratory (Bar Harbor, Me.) and acclimatized for an additional week before use. The following 16 inbred mouse strains were studied: SJL, LGJ, BALB/cJ, DBA/2J, A/J, AKR/J, A/HeJ, 129/SvJ, B10.D2-H2/oSNJ, C57BL/6J, NZW/LaCJ, NZB/BInJ, MRL/MpJ, C3H/HeJ, LP/J, SM/J. The mice were housed under pathogen-free environment and provided food and water ad libitum with a 12h: 12h light: dark cycle until experimental use. Before each experiment, food was withheld from the animals overnight (greater than sixteen hours) to uniformly deplete hepatic glutathione stores. All mice were administered a single 300 mg/kg intraperitoneal dose of freshly prepared acetaminophen (Voigt Global Distribution Inc.) suspended in PBS (pH 7.4), and were allowed free access to food and water after treatment. The mice were euthanized by CO2 inhalation to collect blood samples and liver tissues at zero, three, and six hours after dosing. The remaining mice were monitored for 48 hours for the occurrence of acetaminophen-induced deaths. Blood samples were withdrawn by cardiac puncture and placed in EDTA-coated tubes, and plasma samples were isolated by centrifugation. Alanine aminotransferase (ALT) activity was measured at the Marshfield Clinic Laboratories (Marshfield, Wis.). Liver tissues were removed immediately and cut into two sections. The smaller section was fixed in buffered formalin, processed by standard histological techniques, stained with hematoxylin and eosin, and examined for histopathologic evidence of liver injury. The remaining sections were snap-frozen in liquid nitrogen and stored at −80° C. for gene expression and metabolite analysis.

[3] = test system: hepatic glutathione; assay: Endogenous liver metabolite profiling by 1H-13C two-dimensional NMR after acetaminophen exposure; assay type: in vivo, mouse; conditions: three hours after acetaminophen administration
Description: Analysis of acetaminophen-induced endogenous metabolite and gene expression changes. Endogenous metabolites and gene expression changes in liver were examined at 0, 3 and 6 hours after acetaminophen exposure in the resistant (SJL) and three sensitive strains (DBA, SMJ and C57) strains in order to identify the pathways and genes contributing to resistance to acetaminophen-induced liver toxicity. The endogenous metabolites were profiled using ^1H—^13C two-dimensional-NMR analysis. Over 400 metabolite peaks were quantified and analyzed by this method, and principal component analysis (PCA) (Duda, 2001, Pattern Classification, John Wiley & Sons, Inc., pp. 568-569, which is hereby incorporated by reference herein) was used to identify metabolite peaks that distinguished the response of the sensitive strain from the three resistant strains. […]
Therefore, the metabolites within the peaks that distinguished the response of the resistant strain from the three sensitive strains at zero and three hours after drug exposure were identified. […] Using resonance assignments and confirmation experiments with purified compounds, the identity of eight of these nine peaks was determined. […]
NMR spectra were recorded at 300°K on a Bruker Avance 600 MHz spectrometer operating at ^1H frequency of 599.99 MHz and ^13C frequency of 150.87 MHz using a 3 mm Nalorac microprobe with z-axis pulsed-field gradient. […]

[4] = test system: Ddit3, Dnajb1, and Gadd45ga; assay: Hepatic gene expression profiles (microarrays) after acetaminophen treatment; assay type: in vivo, mouse; conditions: liver; SJL and three sensitive strains
Source text: Differential susceptibility to a hepatotoxic dose of acetaminophen could result from differences in the rate of production of the reactive quinone metabolite that causes liver toxicity. […] Thus, a hepatotoxic dose of acetaminophen induces the formation of protein adducts and activates the DNA damage response in resistant SJL mice to the same extent as in the susceptible strains.
Therefore, the metabolites within the peaks that distinguished the response of the resistant strain from the three sensitive strains at zero and three hours after drug exposure were identified. […] Using resonance assignments and confirmation experiments with purified compounds, the identity of eight of these nine peaks was determined. Three peaks were assigned to glutathione. […] Five other metabolite peaks were assigned to alanine, lactate and betaine. Microarrays were simultaneously used to analyze gene expression in liver obtained from these four strains before (zero hr) and three hours after acetaminophen administration. […] This large number of differentially expressed genes limited the utility of analyzing the gene expression data by itself. However, an integrated analysis of the gene expression and metabolite data provided a more restricted set of pathways and genes to consider. […]

CC(=O)Nc1ccc(O)cc1 [acetaminophen]
hepatic acetaminophen-protein adducts generated [1]: same amount of hepatic acetaminophen-protein adducts
mortality ([2]; 15 sensitive strains, single 300 mg/kg intraperitoneal dose): mortality in a significant percent of the mice
mortality ([2]; C57B6 mice, within six hours after dosing): 100%
time at which mortality occurred after dosing ([2]; DBA/2 strain): 48 h
mortality ([2]; SJL mice, single 300 mg/kg intraperitoneal dose): no mortality
survival ([2]; SJL mice, within forty-eight hours after treatment): all SJL mice survived
time at which mortality occurred after dosing ([2]; SMJ strain): 24 h
increase in serum ALT ([2]; mouse, in vivo, ip, 300 mg/kg): much smaller and transient increase
mortality ([2]; three sensitive strains (C57BL6, DBA/2, SMJ), within forty-eight hours after treatment): at least 60%
hepatic glutathione concentration ([3]; SJL strain): maintained its hepatic glutathione concentration
hepatic glutathione levels ([3]; three sensitive strains): significantly decreased
level of expression of three DNA damage response genes (Ddit3, Dnajb1, Gadd45ga) [4]: increased to the same extent in all four strains
